This note sets out measurements from PubChem BioAssay AID588339 (The Scripps Research Institute Molecular Screening Center, 2011).

Calls of active or inactive are those of the source. The rule behind the calls is not given here.

The subject of the assay is TLR9-MyD88 CHO cells, cytotoxicity, luminescence. Put plainly: cytotoxicity in TLR9-MyD88 CHO cells, dose response, cytotoxicity control for TLR9-MyD88 binding inhibitor project, cell-based, luminescence (AID 588339).

As for `COc1cc(/C=C/C(=O)/C=C(O)/C=C/c2ccc(O)c(OC)c2)ccc1O`, the IC50 is 34600 nM (inactive).

As to `C[CH2][Hg][S]c1ccccc1C(=O)O`, the IC50 is 921 nM.

As usually defined, the IC50 is the concentration that inhibits the measured activity by half.
